Source: patent US11324768B2, “Applications of triacetyl-3-hydroxyl phenyl adenosine in treating vascular inflammations or improving vascular endothelium functions” (priority 2016, dated 2022)

Columns and labels:
Type in all cases: in vivo
[1] = system: C57BL/6J mice; test: TNF-α-induced acute vascular inflammation in mice (leukocyte movement rate and leukocyte-endothelial cell adhesion in mesenteric venules); details: 7 days, 4 h after TNF-α
Method: 60 C57BL/6J mice were randomly divided into 6 groups according to body weight: normal control group, model control group, IMM-H007 group, positive control AMPK agonist group metformin, A769662 group, and atorvastatin group, respectively, and were intragastrically administered with physiological saline, IMM-H007 (100 mg/kg), metformin (260 mg/kg), and atorvastatin (lipitor, 10 mg/kg), respectively, and injected intraperitoneally with A769662 (30 mg/kg, which is difficult to absorb by oral administration) for 7 consecutive days. On the 8th day, except that the blank control group was intraperitoneally injected with normal saline, other groups were all intraperitoneally injected with TNF-α (0.3 μg/dose) to induce acute inflammations in the blood vessels. Four hours after the injection of TNF-α, the optic nerve vascular plexus was intravenously injected with 0.05% Rhodamine-6G, and leukocytes were fluorescently labeled with 100 μl. The mice were anesthetized with pentobarbital sodium. The right side of the mice was fixed on a observation table. A small mouth was cut along the abdominal cavity. The mesenteric vascular bed was gently pulled out. The small intestine of the mice was fixed in a observation window. The microscope is turned on to find a clear third-order mesenteric vein under a low power microscope, and then adjusted to 20-fold magnification for observation, after adjusting the brightness and focal length to the optimum, the white light was turned off, the fluorescence was turned on, and a 1 min leukocyte movement video was collected from each vessel segment using the ToumView software of the Dynamic Visual Microvascular Research System (Gene&I-SMC1). The leukocyte movement rate and leukocyte-endothelial cell adhesion number reflect intravascular inflammations and are early signs of endothelial dysfunction.
The leukocyte movement rate was analyzed with image pro 6.0. At least three observation points were selected for each observation field, and at least 9 observation sites were finally counted for each mouse. The mean value was calculated to obtain the average leukocyte movement rate.

[2] = system: ApoE−/− mice; test: Intravascular inflammatory response in high-fat-fed ApoE−/− mice (chronic inflammation model); details: 8 weeks, high-fat diet
Method: After 1 week of adaptive feeding, the animals were randomly divided into 4 groups according to body weight: model control group, A769662 (30 mg/kg, ip), metformin (260 mg/kg), IMM-H007 (100 mg/kg) administration groups, 7 in each group, and were given a high-fat diet (78.6% basal diet, 10% lard, 1.00%/cholesterol, 10% egg yolk powder, and 0.4% bile salt), and simultaneously administered intragastrically at a dose of 0.1 ml/10 g body weight, and were continuously administered and fed for 8 weeks. The mice were anesthetized with pentobarbital sodium (60 mg/kg body weight). The right side of the mice was fixed on a observation table. A small mouth was cut along the abdominal cavity. The mesenteric vascular bed was gently pulled out. The small intestine of the mice was fixed in an observation window, the microscope is turned on to find a clear third-order mesenteric vein under a low power microscope, and then adjusted to 20-fold magnification for observation, after adjusting the brightness and focal length to the optimum, the white light was turned off, the fluorescence was turned on, and the leukocyte movement in the blood vessel could be observed. A 1 min leukocyte movement video was collected from each vessel segment using the ToumView software of the Dynamic Visual Microvascular Research System (Gene&I-SMC1). Leukocyte movement rate and number of leukocyte-endothelial cells adhesion were analyzed using image pro 6.0.
(1) Leukocyte Movement Rate and (2) Number of Leukocyte-Endothelial Cell Adhesion

[3] = system: ApoE−/− mice; test: Plaque area in ApoE−/− mice (oil red O staining of aorta and aortic root); details: for plaque area, Overall length of aorta: in % (unit assumed)
Method: After 1 week of adaptive feeding, the animals were randomly divided into 7 groups according to body weight: normal control group, model control group A769662 (30 mg/kg) administration group, metformin (260 mg/kg) administration group, IMM-H007 low, medium, and high administration groups (50, 100, 200 mg/kg), 8 in each group, and were given a high-fat diet (78.6% basal diet, 10% lard, 1.0% cholesterol, 10% egg yolk powder, and 0.4% bile salt), and simultaneously administered intragastrically at a dose of 0.1 ml/10 g body weight, […] model.
The aortic root was stained with oil red O and the overall length of the aorta was stained with oil red O. The pathological images were analyzed by Photoshop, Image 1, and Image-Pro Plus softwares. The pathological grading data were statistically analyzed using Chi-square test.

[4] = system: TNF-α; test: Serum inflammatory factor TNF-α in ApoE−/− mice (ELISA); set-up: unit not given here
Method: After 1 week of adaptive feeding, the animals were randomly divided into 7 groups according to body weight: normal control group, model control group A769662 (30 mg/kg) administration group, metformin (260 mg/kg) administration group, IMM-H007 low, medium, and high administration groups (50, 100, 200 mg/kg), 8 in each group, and were given a high-fat diet (78.6% basal diet, 10% lard, 1.0% cholesterol, 10% egg yolk powder, and 0.4% bile salt), […] body weight, and were continuously administered and fed for 8 weeks to establish an atherosclerosis model.
(2) Effect of IMM-H007 on Serum Inflammatory Factors TNF-α and VCAM-1 in ApoE−/− Mice
Operated according to kit instructions

[5] = system: VCAM-1; test: Serum inflammatory factor VCAM-1 in ApoE−/− mice (ELISA)

`CC(C)c1c(C(=O)Nc2ccccc2)c(-c2ccccc2)c(-c2ccc(F)cc2)n1CC[C@@H](O)C[C@@H](O)CC(=O)O` [Atorvastatin, atorvastatin] showed a Leukocyte movement rate ([1]; 10 mg/kg intragastric) of 20.6 µm/s and a Number of leukocyte adhesion ([1]; 10 mg/kg intragastric) of 5.3 number/200 µm.

`N#Cc1c(O)c2c(-c3ccc(-c4ccccc4O)cc3)csc2[nH]c1=O` [A769662] was tested, and the Leukocyte movement rate ([2]; 30 mg/kg, ip) was 28.7 ± 7 µm/s, the “Number of leukocyte adhesion” value ([2]; 30 mg/kg, ip) was 13.7 ± 4.9 number/200 micron and the “plaque area, Frozen section of root of aorta %” value ([3]; 30 mg/kg, ip) was 3.02 ± 0.89 %. For the same molecule, the “plaque area, Overall length of aorta” value ([3]; 30 mg/kg, ip) was 2.61 ± 1.80, the “serum TNF-α” value ([4]; 30 mg/kg, ip) was 247.3 ± 49.7 and the Leukocyte movement rate ([1]; 30 mg/kg, ip) was 24.9 ± 3.8 µm/s. For the same molecule, the “Number of leukocyte adhesion” value ([1]; 30 mg/kg, ip) was 3.5 ± 1.8 number/200 micron and the “serum VCAM-1” value ([5]; 30 mg/kg, ip) was 233.1 ± 18.3.

`CN(C)C(=N)N=C(N)N` [Metformin, metformin] was tested, and the Leukocyte movement rate ([2]; 260 mg/kg) was 21.4 µm/s, the “Number of leukocyte adhesion” value ([2]; 260 mg/kg) was 16.3 ± 6.8 number/200 micron and the “plaque area, Frozen section of root of aorta %” value ([3]; 260 mg/kg) was 3.73 ± 1.15 %. The “plaque area, Overall length of aorta” value ([3]; 260 mg/kg) was 3.13 ± 1.76, the “serum TNF-α” value ([4]; 260 mg/kg) was 229.1 ± 35.2 and the Leukocyte movement rate ([1]; 260 mg/kg intragastric) was 21.5 µm/s. The “Number of leukocyte adhesion” value ([1]; 260 mg/kg intragastric) was 5.1 ± 2.2 number/200 micron and the “serum VCAM-1” value ([5]; 260 mg/kg) was 234.9 ± 16.7.
